Measured values taken from patent publication US9675697B2 (THE REGENTS OF THE UNIVERSITY OF MICHIGAN, priority 2013, dated 2017).
Read-outs that look alike come from different tables or passages of the source.

Tests used:
[1] = target: T1, BRD2 BD2 (Homo sapiens (Human), UniProt P25440); assay: FP competitive binding assay (BRD-1F probe)
Procedure: The FAM labeled fluorescent probe (BRD-1F) was synthesized based on a known small-molecule BET bromodomain inhibitor. […] Final BRD-1F concentration was 5 nM. Plates were incubated at room temperature for 1-2 hours with gentle shaking to assure equilibrium.
Final probe concentration is 5 nM in all assays. […] FP values were measured as described above.

[2] = tested on: MOLM-13; assay: Cell growth inhibition, CellTiter-Glo, acute leukemia cell line; type: cell-based; conditions: Homo sapiens, MOLM-13, 96 h, 4 days
Procedure: (§1) Cell growth inhibitory activity of representative BET bromodomain inhibitors was determined using CellTiter-Glo® Luminescent Cell Viability Assay. For leukemia cell lines MV-4-11 (ATCC, Manassas, Va.) and MOLM-13 (DSMZ, Germany), cells were seeded in 96-well white opaque cell culture plates at a density of 10,000 cells/well with serially diluted compounds and incubated at 37° C. in an atmosphere of 95% air and 5% CO2 for 4 days. Cell viability was determined using the CellTiter-Glo® Luminescent Cell Viability Assay Kit (Promega, Madison, Wis.) according to the manufacture's instruction. Briefly, a volume of CellTiter-Glo® Reagent equal to the volume of cell culture medium was added to each well, and then the plates were incubated at room temperature for 10-20 minutes. The luminescent signal was measured using a Tecan Infinite M1000 multimode microplate reader (Tecan, Morrisville, N.C.). The half maximal inhibitory concentration (IC50) was calculated using the GraphPad Prism 5 software (GraphPad Software, La Jolla, Calif.).

[3] = tested on: MV-4-11; assay: as above; type: cell-based; conditions: Homo sapiens, MV4-11, 96 h, 4 days
Procedure: as §1

[4] = tested on: leukemia MOLM-13 cell line; assay: 4-day cell viability assay, CellTiter-Glo; type: cell-based; conditions: 4 days, read-out: Cell Growth Inhibition (IC50 (nM)) MOLM-13 Cell Line (CellTiter-Glo assay)
Procedure: (§2) The effect of representative BET bromodomain inhibitors on cell viability was determined in a 4-day proliferation assay. Cells were maintained in the appropriate culture medium with 10% FBS at 37° C. and an atmosphere of 5% CO2. All the cell lines were used within three months of thawing fresh vials.
(§3) Cells were seeded in 96-well flat bottom (Corning COSTAR, Corning, N.Y., cat#3595) or white opaque cell culture plates (BD Falcon, cat#353296) at a density of 3,000-10,000 cells/well in 75 μl of culture medium. Compounds were serially diluted in the appropriate medium, and 75 μl of the diluted compounds were added to the appropriate wells of the cell plate. After the addition of compounds, the cells were incubated at 37° C. in an atmosphere of 5% CO2 for 4 days. Cell viability was determined using the CellTiter-Glo® Luminescent Cell Viability Assay Kit (Promega, Madison, Wis.) for MOLM-13 cells and WST (2-(2-methoxy-4-nitrophenyl)-3-(4-nitrophenyl)-5-(2,4-disulfophenyl)-2H-tetrazolium, monosodium salt) Cell Counting-8 Kit (Dojindo Molecular Technologies, Inc., Rockville, Md.) for MDA-MB-436 cells according to the manufacturers' instructions.
For the CellTiter-Glo assay, 100 μl of CellTiter-Glo® Reagent was added to each well, and then the plates were incubated at room temperature for 10-20 minutes. The luminescent signal was measured using a Tecan Infinite M1000 multimode microplate reader (Tecan, Morrisville, N.C.). The readings were normalized to the DMSO-treated cells and the IC50 was calculated by nonlinear regression (four parameters sigmoid fitted with variable slope, least squares fit, and no constraint) analysis using the GraphPad Prism 5 software.

[5] = target: T2, BRD2 BD1 (Homo sapiens (Human), UniProt P25440); assay: FP competitive binding assay using Cpd. No. 350 as the probe
Procedure: (§8) Fluorescence Polarization (FP) competitive binding studies (see above) were carried out using the FAM labeled fluorescent probe Cpd. No. 350 to determine binding affinities of representative compounds to both BD1 and BD2 of BRD2, BRD3, and BRD4 proteins. Equilibrium dissociation constants (Id) values of Cpd. No. 350 to these six proteins were determined from protein saturation experiments by monitoring the total fluorescence polarization of mixtures composed with the fluorescent probe at a fixed concentration and proteins with increasing concentrations up to full saturation. Serial dilutions of testing protein were mixed with Cpd. No. 350 to a final volume of 200 μl in the assay buffer. […] Plates were incubated at room temperature for 30 minutes with gentle shaking to assure equilibrium. […] Kd values of Cpd.
(§9) The IC50 and Ki values of compounds were determined in a competitive binding experiment as described above. […] FP values were measured as described above. IC50 values were determined by nonlinear regression fitting of the competition curves.

[6] = target: T1, BRD2 BD2; assay: as above
Procedure: as §8, §9

[7] = target: T2, BRD2 BD1; assay: OctetRED biolayer interferometry (BLI) binding assay
Procedure: (§4) Binding affinities of synthesized compounds to BRD2 BD1 and BD2, BRD3 BD1 and BD2, and BRD4 BD1 and BD2 were also determined by a label free binding assay using the OctetRED label free biolayer interferometry (BLI) binding assay.
(§5) BLI measures interference pattern changes of light reflected from an optical layer and a biolayer containing protein targets only or complexed with interacting partners. The assay principle is similar to the surface plasmon resonance (SPR) assay in which the target protein is immobilized on an optical surface and then exposed to potential binding partners in solution. The interaction between the binding partner and the immobilized protein changes the optical properties of the biosensors, resulting in the wavelength shift of reflecting light which will change the interference pattern. Association and dissociation rates can be obtained by fitting the real time wavelength shift of the based on a proper binding model, from which KD values can be obtained thereafter.
(§6) Biotin labeled BRD proteins (10 μg/ml) in kinetic assay buffer (PBS, pH 7.4, 0.1% BSA and 0.01% Tween-20) were immobilized on Super Streptavidin (SSA) sensors for 15 minutes followed by washing in kinetic buffer for 10 minutes to eliminate any loose non-specific immobilization. […] These protein coated sensors were then immersed into the testing compound solutions, starting from the one with the lowest concentration, where compound association occurs and then returned to the fresh buffer for the dissociation. The same operation was repeated for the next solution with higher concentration up to the one with the highest concentration. […] For each kinetic cycle, kinetic curves for association and dissociation were obtained from raw sensorgrams by using the double reference subtraction protocol included in the analysis program (Data Analysis 7.0) provided by the manufacturer, in which nonspecific interaction and buffer drift were both corrected. The association and dissociation rate constants (kon and koff) were determined using the global fitting protocol in the analysis program based on a reversible 1:1 binding model. The equilibrium association constant (KA) was calculated thereafter. All binding data were collected at 30 degree. Assay plates were kept being shaken at 1000 RPM in the whole experiment time period to avoid mass transport effect.

[8] = target: T1, BRD2 BD2; assay: as above
Procedure: as §4, §5, §6

[9] = target: T3, BRD3 BD1 (Homo sapiens (Human), UniProt Q15059); assay: as above
Procedure: as §4, §5, §6

[10] = target: T4, BRD3 BD2 (Homo sapiens (Human), UniProt Q15059); assay: as above
Procedure: as §4, §5, §6

[11] = target: T5, BRD4 BD1 (Homo sapiens (Human), UniProt O60885); assay: as above
Procedure: as §4, §5, §6

[12] = target: T6, BRD4 BD2 (Homo sapiens (Human), UniProt O60885); assay: as above
Procedure: as §4, §5, §6

[13] = tested on: MV4;11; assay: Cell growth inhibition in leukemia cell line; type: cell-based
[14] = tested on: AML-2; assay: Cell growth inhibition in leukemia cell line; type: cell-based
Procedure: as §2, §3

[15] = tested on: K562; assay: Cell growth inhibition in leukemia cell line; type: cell-based; conditions: Homo sapiens
[16] = target: T5, BRD4 BD1; assay: FP competitive binding assay using Cpd. No. 350 as the probe
[17] = target: T6, BRD4 BD2; assay: as above
Procedure: as §8, §9

[18] = tested on: prostate VCaP cell line; assay: Cell growth inhibition, Cell TiterGLO, 4 days; type: cell-based; conditions: Homo sapiens, VCaP, 96 h, treated 4 days, read-out: VCaP cells (IC50 (nM))
[19] = tested on: breast cancer MDA-MB-436 cell line; assay: 4-day cell viability assay, WST; type: cell-based; conditions: Homo sapiens, MDA-MB-436, 96 h; 4 days; read-out: Cell Growth Inhibition (IC50 (nM)) MDA-436 Cell Line (WST assay)
Procedure: as §2, §3
For the WST assay, WST-8 reagent was added to each well at a final concentration of 10% (v/v), and then the plates were incubated at 37° C. for 1-2 hours for color development. The absorbance was measured at 450 nm using a SPECTRAmax PLUS plate reader (Molecular Devices, Sunnyvale, Calif.). The readings were normalized to the DMSO-treated cells and the half maximal inhibitory concentration (IC50) was calculated by nonlinear regression (four parameters sigmoid fitted with variable slope, least squares fit, and no constraint) analysis using the GraphPad Prism 5 software (GraphPad Software, La Jolla, Calif.).

[20] = target: T2, BRD2 BD1; assay: FP protein saturation experiment with probe Cpd. No. 350; type: binding; conditions: probe 1.5 nM
Procedure: (§7) Fluorescence Polarization (FP) competitive binding studies (see above) were carried out using the FAM labeled fluorescent probe Cpd. No. 350 to determine binding affinities of representative compounds to both BD1 and BD2 of BRD2, BRD3, and BRD4 proteins. Equilibrium dissociation constants (Id) values of Cpd. […] Final Cpd. […] Kd values of Cpd.

[21] = target: T1, BRD2 BD2; assay: as above; type: binding; conditions: probe 1.5 nM
Procedure: as §7

[22] = target: T3, BRD3 BD1; assay: as above; type: binding; conditions: probe 1.5 nM
Procedure: as §7

[23] = target: T4, BRD3 BD2; assay: as above; type: binding; conditions: probe 1.5 nM
Procedure: as §7

[24] = target: T5, BRD4 BD1; assay: as above; type: binding; conditions: probe 1.5 nM
Procedure: as §7

[25] = target: T6, BRD4 BD2; assay: as above; type: binding; conditions: probe 1.5 nM
Procedure: as §7

[26] = Homo sapiens, MV4-11, cell growth inhibition

T2 sequence (P25440 74-180): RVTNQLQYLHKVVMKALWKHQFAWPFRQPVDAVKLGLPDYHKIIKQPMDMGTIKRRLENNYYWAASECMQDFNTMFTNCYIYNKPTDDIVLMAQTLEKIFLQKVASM
T3 sequence (Q15059 34-140): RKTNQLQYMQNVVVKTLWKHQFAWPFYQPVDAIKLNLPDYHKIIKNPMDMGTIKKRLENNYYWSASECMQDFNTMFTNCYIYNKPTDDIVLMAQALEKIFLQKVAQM
T4 sequence (Q15059 306-415): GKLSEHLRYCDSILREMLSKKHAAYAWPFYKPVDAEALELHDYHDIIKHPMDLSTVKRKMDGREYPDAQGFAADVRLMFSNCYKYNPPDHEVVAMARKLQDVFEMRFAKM
T1 sequence (P25440 344-453): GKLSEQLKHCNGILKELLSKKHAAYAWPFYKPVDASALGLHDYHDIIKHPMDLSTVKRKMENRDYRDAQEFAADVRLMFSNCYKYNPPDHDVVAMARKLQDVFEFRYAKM

Compound	IC50 [2] [nM]	IC50 [3] [nM]	IC50 ([4]; Homo sapiens, MOLM-13, 96 h) [nM]	Kd [7] [nM]	Kd [8] [nM]	Kd [11] [nM]	Kd [12] [nM]	IC50 [14] [nM]	IC50 [15] [nM]	Ki [5] [µM]	Ki [6] [µM]	further results
COc1cc2c(cc1-c1c(C)noc1C)[nH]c1ccnc(-c3c(C)n[nH]c3C)c12	< 500	< 100	311 ± 12	–	–	–	–	–	–	–	–	IC50 ([1]; BRD-1F probe 5 nM, protein 200 nM): 0.0928 ± 0.0308 µM; Ki ([1]; BRD-1F probe, calculated from IC50): < 0.01 µM; Ki ([5]; read-out: BRD2 BD1 Ki, FP, Cpd. No. 350 probe […]): 0.0483 ± 0.0013 µM; Ki ([6]; read-out: BRD2 BD2 Ki, FP, Cpd. No. 350 probe […]): 0.0577 ± 0.0081 µM
COc1cc2c(cc1-c1c(C)noc1C)[nH]c1ccnc(-c3c(C)n[nH]c3C)c12 [Cpd. No. 22, 4-(1-(3,5-dimethyl-1H-pyrazol-4-yl)-8-methoxy-5H-pyrido[4,3-b]indol-7-yl)-3,5-dimethylisoxazole]	–	–	–	34 ± 2.1	24.4 ± 6.2	40 ± 6.4	27.9 ± 6.8	101 ± 22	> 2000	0.021 ± 0.0033	0.0154 ± 0.0032	Kd [9]: 17.9 ± 8.8 nM; Kd [10]: 18.7 ± 4.9 nM; IC50 [4]: 183 ± 38 nM; IC50 ([13]; cell growth inhibition): 61 ± 28 nM; Ki [16]: 0.0441 ± 0.0064 µM; Ki [17]: 0.0161 ± 0.0028 µM
CCc1n[nH]c(CC)c1-c1nccc2[nH]c3cc(-c4c(C)noc4C)c(OC)cc3c12 [Cpd. No. 23, 4-(1-(3,5-diethyl-1H-pyrazol-4-yl)-8-methoxy-5H-pyrido[4,3-b]indol-7-yl)-3,5-dimethylisoxazole]	–	–	104 ± 16	25.6 ± 3.7	–	29 ± 8.8	12.9 ± 2.1	104 ± 5	> 2000	0.0111 ± 0.001	0.0117 ± 0.003	IC50 [18]: 117 nM; IC50 [13, 26]: 17 ± 3 nM; Ki [16]: 0.0247 ± 0.001 µM; Ki [17]: 0.0122 ± 0.0016 µM
COc1cc2c(cc1-c1c(C)noc1C)[nH]c1ccnc(-c3c(C)nn(C)c3C)c12 [Cpd. No. 25, 4-(8-methoxy-1-(1,3,5-trimethyl-1H-pyrazol-4-yl)-5H-pyrido[4,3-b]indol-7-yl)-3,5-dimethylisoxazole]	–	–	343 ± 5	41.2 ± 2.2	35.9 ± 8.8	–	–	163 ± 2	> 2000	0.0122 ± 0.0017	0.0222 ± 0.0028	IC50 [19]: 119 nM; IC50 [13, 26]: 65 ± 24 nM
COc1cc2c(cc1-c1c(C)noc1C)[nH]c1ncnc(-c3c(C)n[nH]c3C)c12 [Cpd. No. 38]	< 500	< 100	–	–	–	–	–	–	–	–	–	–
COc1cc2c(cc1-c1c(C)noc1C)[nH]c1ncnc(-c3c(C)[nH]c4ccccc34)c12 [Cpd. No. 44]	< 100	< 100	–	33.8 ± 8.2	11 ± 4.7	27 ± 14.5	10.2 ± 4.5	–	–	–	–	Kd ([9]; BLI, read-out: Kd (nM) BRD3 BD1): 17 ± 7 nM; Kd ([10]; BLI, read-out: Kd (nM) BRD3 BD2): 10.6 ± 1.1 nM
COc1cc2c(cc1-c1c(C)noc1C)[nH]c1nc(C(=O)NC3CCN(CCCNC(=O)c4ccc(-c5c6ccc(=O)cc-6oc6cc(O)ccc56)c(C(=O)O)c4)CC3)nc(-c3ccnc4ccc(F)cc34)c12 [Cpd. No. 350]	–	–	–	–	–	–	–	–	–	–	–	Kd [20]: 0.002 µM; Kd [21]: 0.0022 µM; Kd [22]: 0.0065 µM; Kd [23]: 0.0006 µM; Kd [24]: 0.0055 µM; Kd [25]: 0.003 µM
